Results from patent US9637472B2, “Substituted 6,5-fused bicyclic heteroaryl compounds” (Epizyme, Inc., priority 2011, dated 2017).
Where two headings read alike, the source gives them in different places.

Molecular target: EZH2 (Homo sapiens (Human), UniProt Q15910)
Assay: PRC2 enzyme assay on peptide substrates
Type: biochemical
[1] = PRC2 enzyme assays on peptide substrates, 4 nM enzyme, 30 min preincubation at 25° C., read-out: EZH2 IC50

Sequence of EZH2 (Q15910 other isoform, or with tags, fused parts or gaps): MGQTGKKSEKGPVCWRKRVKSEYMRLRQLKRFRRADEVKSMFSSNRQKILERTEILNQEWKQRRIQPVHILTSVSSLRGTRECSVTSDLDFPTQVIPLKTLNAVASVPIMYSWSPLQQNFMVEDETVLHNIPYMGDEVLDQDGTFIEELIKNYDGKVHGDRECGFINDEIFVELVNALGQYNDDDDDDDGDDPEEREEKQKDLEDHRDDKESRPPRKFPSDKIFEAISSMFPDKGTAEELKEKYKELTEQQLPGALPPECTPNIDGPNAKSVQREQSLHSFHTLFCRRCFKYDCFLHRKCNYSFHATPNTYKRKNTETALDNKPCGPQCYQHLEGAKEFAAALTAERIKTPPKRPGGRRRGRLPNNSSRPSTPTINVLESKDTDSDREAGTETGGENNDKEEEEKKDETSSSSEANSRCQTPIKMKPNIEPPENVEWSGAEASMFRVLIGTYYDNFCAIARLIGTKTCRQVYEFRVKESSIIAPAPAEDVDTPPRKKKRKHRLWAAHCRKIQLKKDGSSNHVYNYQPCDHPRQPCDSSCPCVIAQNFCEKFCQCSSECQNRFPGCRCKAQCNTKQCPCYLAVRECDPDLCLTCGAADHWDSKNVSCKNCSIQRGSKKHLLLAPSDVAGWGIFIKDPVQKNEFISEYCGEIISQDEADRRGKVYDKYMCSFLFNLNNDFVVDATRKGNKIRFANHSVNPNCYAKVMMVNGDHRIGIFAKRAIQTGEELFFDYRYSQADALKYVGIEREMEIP
Sequence of EZH2 (O75530 whole entry partner): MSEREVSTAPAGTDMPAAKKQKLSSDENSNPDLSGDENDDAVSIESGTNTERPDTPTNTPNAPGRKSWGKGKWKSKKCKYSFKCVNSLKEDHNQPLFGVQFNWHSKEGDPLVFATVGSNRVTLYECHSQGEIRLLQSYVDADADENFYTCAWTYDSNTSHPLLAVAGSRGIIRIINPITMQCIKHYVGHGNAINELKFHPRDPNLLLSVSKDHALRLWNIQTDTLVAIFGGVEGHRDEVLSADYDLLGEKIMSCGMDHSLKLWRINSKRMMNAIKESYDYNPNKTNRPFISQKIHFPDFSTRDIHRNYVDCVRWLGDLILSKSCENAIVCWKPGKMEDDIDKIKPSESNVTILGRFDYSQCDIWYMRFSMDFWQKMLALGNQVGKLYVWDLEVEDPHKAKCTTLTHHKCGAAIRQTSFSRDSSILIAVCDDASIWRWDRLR
Sequence of EZH2 (Q15022 whole entry partner): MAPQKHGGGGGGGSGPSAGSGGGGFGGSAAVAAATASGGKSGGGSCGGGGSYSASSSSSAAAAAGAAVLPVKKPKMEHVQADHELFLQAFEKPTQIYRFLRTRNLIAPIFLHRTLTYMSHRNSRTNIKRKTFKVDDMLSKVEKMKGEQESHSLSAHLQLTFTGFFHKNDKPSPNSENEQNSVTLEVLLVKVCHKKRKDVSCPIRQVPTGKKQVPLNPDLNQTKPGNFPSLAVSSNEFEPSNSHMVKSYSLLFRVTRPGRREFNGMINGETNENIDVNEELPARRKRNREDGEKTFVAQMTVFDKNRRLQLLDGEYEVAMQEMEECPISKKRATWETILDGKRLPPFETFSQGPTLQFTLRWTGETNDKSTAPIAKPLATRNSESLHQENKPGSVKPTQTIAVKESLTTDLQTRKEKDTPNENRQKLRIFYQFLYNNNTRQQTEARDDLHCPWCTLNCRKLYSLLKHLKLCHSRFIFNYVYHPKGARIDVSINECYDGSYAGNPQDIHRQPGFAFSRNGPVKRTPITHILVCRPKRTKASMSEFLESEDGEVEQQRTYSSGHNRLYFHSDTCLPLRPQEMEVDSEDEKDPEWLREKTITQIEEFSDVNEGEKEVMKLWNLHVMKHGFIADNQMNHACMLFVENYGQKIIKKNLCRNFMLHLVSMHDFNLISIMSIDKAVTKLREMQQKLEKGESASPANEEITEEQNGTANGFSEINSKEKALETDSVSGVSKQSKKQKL
Sequence of EZH2 (Q09028 whole entry partner): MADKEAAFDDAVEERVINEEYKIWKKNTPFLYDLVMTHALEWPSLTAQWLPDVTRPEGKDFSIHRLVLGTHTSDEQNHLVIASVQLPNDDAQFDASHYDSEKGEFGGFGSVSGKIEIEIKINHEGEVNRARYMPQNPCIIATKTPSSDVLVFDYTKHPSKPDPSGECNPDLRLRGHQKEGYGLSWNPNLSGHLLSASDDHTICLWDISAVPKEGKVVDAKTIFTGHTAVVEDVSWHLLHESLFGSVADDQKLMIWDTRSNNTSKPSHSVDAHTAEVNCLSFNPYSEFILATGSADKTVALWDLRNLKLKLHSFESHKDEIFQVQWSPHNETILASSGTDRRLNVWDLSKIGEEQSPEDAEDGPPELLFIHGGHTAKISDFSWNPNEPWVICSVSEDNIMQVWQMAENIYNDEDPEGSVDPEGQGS

Cc1cc(C)c(CNC(=O)c2cc(C3CCN(C4CCN(CCS(C)(=O)=O)CC4)CC3)nc3c2cnn3C(C)C)c(=O)[nH]1 [Compound B-55]
IC50 [1]: 300 to 1000 nM

Cc1cc(C)c(CNC(=O)c2cc(C3CCN(C(=O)CN(C)C)CC3)nc3c2cnn3C(C)C)c(=O)[nH]1 [Compound B-57]
IC50 [1]: 300 to 1000 nM

Cc1cc(C)c(CNC(=O)c2cc(C3=CCNCC3)nc3c2cnn3C(C)C)c(=O)[nH]1 [Compound B-60]
IC50 [1]: 300 to 1000 nM

Cc1cc(C)c(CNC(=O)c2cc(C3CCN(C(=O)CCN)CC3)nc3c2cnn3C(C)C)c(=O)[nH]1 [Compound B-62]
IC50 [1]: 300 to 1000 nM

Cc1cc(C)c(CNC(=O)c2cc(C3=CCN(C(=O)CN)CC3)nc3c2cnn3C(C)C)c(=O)[nH]1 [Compound B-63]
IC50 [1]: 300 to 1000 nM

CC(=O)N1CC=C(c2cc(C(=O)NCc3c(C)cc(C)[nH]c3=O)c3cnn(C(C)C)c3n2)CC1 [Compound B-64]
IC50 [1]: 300 to 1000 nM

Cc1cc(C)c(CNC(=O)c2cc(C3=CCN(C(=O)[C@@H](N)CO)CC3)nc3c2cnn3C(C)C)c(=O)[nH]1 [Compound B-66]
IC50 [1]: 300 to 1000 nM

Cc1cc(C)c(CNC(=O)c2cc(C3=CCN(C(=O)C(O)CN)CC3)nc3c2cnn3C(C)C)c(=O)[nH]1 (stereo not shown) [Compound B-70]
IC50 [1]: 300 to 1000 nM

Cc1cc(C)c(CNC(=O)c2cc(C3CCN(CCC(F)(F)F)CC3)nc3c2cnn3C(C)C)c(=O)[nH]1 [Compound B-71]
IC50 [1]: 300 to 1000 nM

Cc1cc(C)c(CNC(=O)c2cc(C3CCN(C)CC3)nc3c2cnn3C(C)C)c(=O)[nH]1 [Compound B-73]
IC50 [1]: 300 to 1000 nM

Cc1cc(C)c(CNC(=O)c2cc(C3=CCN(C)CC3)nc3c2cnn3C(C)C)c(=O)[nH]1 [Compound B-75]
IC50: 300 to 1000 nM

CNCC(=O)N1CCC(c2cc(C(=O)NCc3c(C)cc(C)[nH]c3=O)c3cnn(C(C)C)c3n2)CC1 [Compound B-76]
IC50 [1]: 300 to 1000 nM

Cc1cc(C)c(CNC(=O)c2cc(C3CCN(C(=O)C4CNC4)CC3)nc3c2cnn3C(C)C)c(=O)[nH]1 [Compound B-77]
IC50 [1]: 300 to 1000 nM

CC(=O)N1CCC(c2cc(C(=O)NCc3c(C)cc(C)[nH]c3=O)c3cnn(C(C)C)c3n2)CC1 [Compound B-78]
IC50 [1]: 300 to 1000 nM

Cc1cc(C)c(CNC(=O)c2cc(C3CCN(C(=O)CN)CC3)nc3c2cnn3C(C)C)c(=O)[nH]1 [Compound B-79]
IC50 [1]: 300 to 1000 nM

Cc1cc(C)c(CNC(=O)c2cc(C3=CCOCC3)nc3c2cnn3C(C)C)c(=O)[nH]1 [Compound B-80]
IC50 [1]: 300 to 1000 nM

Cc1cc(C)c(CNC(=O)c2cc(C3=CCCCC3)nc3c2cnn3C(C)C)c(=O)[nH]1 [Compound B-81]
IC50 [1]: 300 to 1000 nM

Cc1cc(C)c(CNC(=O)c2cc(C3=CCN(C(=O)CO)CC3)nc3c2cnn3C(C)C)c(=O)[nH]1 [Compound B-82]
IC50 [1]: 300 to 1000 nM

Cc1cc(C)c(CNC(=O)c2cc(C3CCN(CCS(C)(=O)=O)CC3)nc3c2cnn3C(C)C)c(=O)[nH]1 [Compound B-83]
IC50 [1]: 300 to 1000 nM

Cc1cc(C)c(CNC(=O)c2cc(C3=CCN(CCC(F)(F)F)CC3)nc3c2cnn3C(C)C)c(=O)[nH]1 [Compound B-84]
IC50 [1]: 300 to 1000 nM

Cc1cc(C)c(CNC(=O)c2cc(C3CCN(C(=O)CO)CC3)nc3c2cnn3C(C)C)c(=O)[nH]1 [Compound B-85]
IC50 [1]: 300 to 1000 nM

Cc1cc(C)c(CNC(=O)c2cc(N3CCC(N(C)C)CC3)nc3c2cnn3C(C)C)c(=O)[nH]1 [Compound B-86]
IC50 [1]: 1000 to 3000 nM

Cc1cc(C)c(CNC(=O)c2cc(N3CCC(N4CCOCC4)CC3)nc3c2cnn3C(C)C)c(=O)[nH]1 [Compound B-87]
IC50 [1]: 1000 to 3000 nM

Cc1cc(C)c(CNC(=O)c2cc(Br)nc3c2cnn3C(C)C)c(=O)[nH]1 [Compound B-88]
IC50 [1]: 1000 to 3000 nM

Cc1cc(C)c(CNC(=O)c2cc(C3=CCN(CCS(C)(=O)=O)CC3)nc3c2cnn3C(C)C)c(=O)[nH]1 [Compound B-89]
IC50 [1]: 1000 to 3000 nM

Cc1cc(C)c(CNC(=O)c2cc(N(C)CCCN(C)C)nc3c2cnn3C(C)C)c(=O)[nH]1 [Compound B-91]
IC50 [1]: 1000 to 3000 nM

Cc1cc(C)c(CNC(=O)c2cc(N3CCNCC3)nc3c2cnn3C(C)C)c(=O)[nH]1 [Compound B-92]
IC50 [1]: 1000 to 3000 nM

C=C(C)c1cc(C(=O)NCc2c(C)cc(C)[nH]c2=O)c2cnn(C(C)C)c2n1 [Compound B-93]
IC50 [1]: 1000 to 3000 nM

Cc1cc(C)c(CNC(=O)c2cc(N3CCC(C4CCN(C)CC4)CC3)nc3c2cnn3C(C)C)c(=O)[nH]1 [Compound B-94]
IC50 [1]: 1000 to 3000 nM

Cc1cc(C)c(CNC(=O)c2cc(N3CCC(=O)CC3)nc3c2cnn3C(C)C)c(=O)[nH]1 [Compound B-95]
IC50 [1]: 1000 to 3000 nM

Cc1cc(C)c(CNC(=O)c2cc(C3CCN(C(=O)C(O)CN)CC3)nc3c2cnn3C(C)C)c(=O)[nH]1 (stereo not shown) [Compound B-96]
IC50 [1]: 1000 to 3000 nM

C=Cc1cc(C(=O)NCc2c(C)cc(C)[nH]c2=O)c2cnn(C(C)C)c2n1 [Compound B-97]
IC50 [1]: 1000 to 3000 nM

Cc1cc(C)c(CNC(=O)c2cc(N3CCOCC3)nc3c2cnn3C(C)C)c(=O)[nH]1 [Compound B-98]
IC50 [1]: 1000 to 3000 nM

Cc1cc(C)c(CNC(=O)c2cc(C3=CCN(S(C)(=O)=O)CC3)nc3c2cnn3C(C)C)c(=O)[nH]1 [Compound B-99]
IC50 [1]: 1000 to 3000 nM

Cc1cc(C)c(CNC(=O)c2cc(C3CCN(C(=O)[C@@H](N)CO)CC3)nc3c2cnn3C(C)C)c(=O)[nH]1 [Compound B-100]
IC50 [1]: 1000 to 3000 nM

Cc1cc(C)c(CNC(=O)c2cc(N3CCC(N4CCN(S(C)(=O)=O)CC4)CC3)nc3c2cnn3C(C)C)c(=O)[nH]1 [Compound B-101]
IC50 [1]: 1000 to 3000 nM

Cc1cc(C)c(CNC(=O)c2cc(N3CCC(N4CCN(CCS(C)(=O)=O)CC4)CC3)nc3c2cnn3C(C)C)c(=O)[nH]1 [Compound B-102]
IC50 [1]: 1000 to 3000 nM

Cc1cc(C)c(CNC(=O)c2cc(C3=CC(C)(C)NC(C)(C)C3)nc3c2cnn3C2C=CCCC2)c(=O)[nH]1 (stereo not shown) [Compound B-103]
IC50 [1]: 1000 to 3000 nM

Cc1cc(C)c(CNC(=O)c2cc(OC(C)C)nc3c2cnn3C(C)C)c(=O)[nH]1 [Compound B-104]
IC50 [1]: 1000 to 3000 nM

Cc1cc(C)c(CNC(=O)c2cc(C3CCN(C(=O)[C@H](C)N)CC3)nc3c2cnn3C(C)C)c(=O)[nH]1 [Compound B-105]
IC50 [1]: 1000 to 3000 nM

Cc1cc(C)c(CNC(=O)c2cc(N3CCC(N4CCN(C)CC4)CC3)nc3c2cnn3C(C)C)c(=O)[nH]1 [Compound B-106]
IC50 [1]: 1000 to 3000 nM

Cc1cc(C)c(CNC(=O)c2cc(C3=CC(C)(C)NC(C)(C)C3)nc3c2cnn3C2CCNCC2)c(=O)[nH]1 [Compound B-107]
IC50 [1]: 1000 to 3000 nM

Cc1cc(C)c(CNC(=O)c2cc(N3CCC(N4CCN(C(=O)OC(C)(C)C)CC4)CC3)nc3c2cnn3C(C)C)c(=O)[nH]1 [Compound B-108]
IC50 [1]: 1000 to 3000 nM

Cc1cc(C)c(CNC(=O)c2cc(N3CCC(N)CC3)nc3c2cnn3C(C)C)c(=O)[nH]1 [Compound B-110]
IC50 [1]: 1000 to 3000 nM

CCOc1cc(C(=O)NCc2c(C)cc(C)[nH]c2=O)c2cnn(C(C)C)c2n1 [Compound B-112]
IC50 [1]: 1000 to 3000 nM

Cc1cc(C)c(CNC(=O)c2cc(CO)nc3c2cnn3C(C)C)c(=O)[nH]1 [Compound B-113]
IC50 [1]: 1000 to 3000 nM

Cc1cc(C)c(CNC(=O)c2cc(NCCS(C)(=O)=O)nc3c2cnn3C(C)C)c(=O)[nH]1 [Compound B-114]
IC50 [1]: 1000 to 3000 nM

Cc1cc(C)c(CNC(=O)c2cc(N3CCCCC3)nc3c2cnn3C(C)C)c(=O)[nH]1 [Compound B-115]
IC50 [1]: 1000 to 3000 nM

Cc1cc(C)c(CNC(=O)c2cc(C3=CC(C)(C)NC(C)(C)C3)nc3c2cnn3C2CCN(C)CC2)c(=O)[nH]1 [Compound B-116]
IC50 [1]: 1000 to 3000 nM

CCc1cc(C(=O)NCc2c(C)cc(C)[nH]c2=O)c2cnn(C(C)C)c2n1 [Compound B-117]
IC50 [1]: 1000 to 3000 nM

COc1cc(C(=O)NCc2c(C)cc(C)[nH]c2=O)c2cnn(C(C)C)c2n1 [Compound B-118]
IC50 [1]: 1000 to 3000 nM

Cc1cc(C)c(CNC(=O)c2cc(N3CCC(O)C3)nc3c2cnn3C(C)C)c(=O)[nH]1 (stereo not shown) [Compound B-119]
IC50 [1]: 1000 to 3000 nM

C=C(Cn1ncc2c(C(=O)NCc3c(C)cc(C)[nH]c3=O)cc(C3=CC(C)(C)NC(C)(C)C3)nc21)C(=O)OC [Compound B-120]
IC50 [1]: 1000 to 3000 nM

CC(=O)Nc1cc(C(=O)NCc2c(C)cc(C)[nH]c2=O)c2cnn(C(C)C)c2n1 [Compound B-121]
IC50 [1]: 1000 to 3000 nM

CCc1c(C)[nH]c(=O)c(CNC(=O)c2cc(C3=CC(C)(C)NC(C)(C)C3)nc3c2cnn3C(C)C)c1C [Compound B-122]
IC50 [1]: 3000 to 10000 nM

Cc1cc(C)c(CNC(=O)c2cc(N3CCCC3)nc3c2cnn3C(C)C)c(=O)[nH]1 [Compound B-123]
IC50 [1]: 3000 to 10000 nM

COC(=O)/C=C/Cn1ncc2c(C(=O)NCc3c(C)cc(C)[nH]c3=O)cc(C3=CC(C)(C)NC(C)(C)C3)nc21 [Compound B-124]
IC50 [1]: 3000 to 10000 nM

Cc1cc(C)c(CNC(=O)c2cc(N)nc3c2cnn3C(C)C)c(=O)[nH]1 [Compound B-125]
IC50 [1]: 3000 to 10000 nM

Cc1cc(C)c(CNC(=O)c2cc(C(O)CO)nc3c2cnn3C(C)C)c(=O)[nH]1 (stereo not shown) [Compound B-126]
IC50 [1]: 3000 to 10000 nM

Cc1cc(C)c(CNC(=O)c2ccnc3c2cnn3C(C)C)c(=O)[nH]1 [Compound B-127]
IC50 [1]: 3000 to 10000 nM

Cc1cc(C)c(CNC(=O)c2cc(C(=O)N3CCC(N4CCN(C)CC4)CC3)nc3c2cnn3C(C)C)c(=O)[nH]1 [Compound B-128]
IC50 [1]: 3000 to 10000 nM

Cc1cc(C)c(CNC(=O)c2cc(C3CCOCC3)nc3c2cnn3C(C)C)c(=O)[nH]1 [Compound B-129]
IC50 [1]: 3000 to 10000 nM

Cc1cc(C)c(CNC(=O)c2cc(C3=CC(C)(C)NC(C)(C)C3)nc3c2cnn3CC2CC2)c(=O)[nH]1 [Compound B-130]
IC50 [1]: 3000 to 10000 nM

CCn1ncc2c(C(=O)NCc3c(C)cc(C)[nH]c3=O)cc(C3=CC(C)(C)NC(C)(C)C3)nc21 [Compound B-131]
IC50 [1]: 3000 to 10000 nM

Cc1cc(C)c(CNC(=O)c2cc(C(=O)N(C)CCN(C)C)nc3c2cnn3C(C)C)c(=O)[nH]1 [Compound B-133]
IC50 [1]: 3000 to 10000 nM

Cc1cc(C)c(CNC(=O)c2cc(N(C)CC(O)CO)nc3c2cnn3C(C)C)c(=O)[nH]1 (stereo not shown) [Compound B-134]
IC50 [1]: 3000 to 10000 nM

Cc1cc(C)c(CNC(=O)c2cc(N(C)CCN(C)C)nc3c2cnn3C(C)C)c(=O)[nH]1 [Compound B-135]
IC50 [1]: 3000 to 10000 nM

Cc1cc(C)c(CNC(=O)c2cc(N(C)C)nc3c2cnn3C(C)C)c(=O)[nH]1 [Compound B-136]
IC50 [1]: 3000 to 10000 nM

CCc1c(C)[nH]c(=O)c(CNC(=O)c2cc(C3CC(C)(C)NC(C)(C)C3)nc3c2cnn3C(C)C)c1C [Compound B-137]
IC50 [1]: 3000 to 10000 nM

Cc1cc(C)c(CNC(=O)c2cc(C(=O)N3CCN(C)CC3)nc3c2cnn3C(C)C)c(=O)[nH]1 [Compound B-138]
IC50 [1]: 3000 to 10000 nM
